Our source for the IC50 values is ChEMBL document CHEMBL1795338, “Identification of pentacyclic triterpenes derivatives as potent inhibitors against glycogen phosphorylase based on 3D-QSAR studies” (Eur J Med Chem, 2011).

The test has as its target T1, Glycogen phosphorylase, muscle form (Oryctolagus cuniculus, UniProt P00489).
T1 sequence (P00489 whole entry): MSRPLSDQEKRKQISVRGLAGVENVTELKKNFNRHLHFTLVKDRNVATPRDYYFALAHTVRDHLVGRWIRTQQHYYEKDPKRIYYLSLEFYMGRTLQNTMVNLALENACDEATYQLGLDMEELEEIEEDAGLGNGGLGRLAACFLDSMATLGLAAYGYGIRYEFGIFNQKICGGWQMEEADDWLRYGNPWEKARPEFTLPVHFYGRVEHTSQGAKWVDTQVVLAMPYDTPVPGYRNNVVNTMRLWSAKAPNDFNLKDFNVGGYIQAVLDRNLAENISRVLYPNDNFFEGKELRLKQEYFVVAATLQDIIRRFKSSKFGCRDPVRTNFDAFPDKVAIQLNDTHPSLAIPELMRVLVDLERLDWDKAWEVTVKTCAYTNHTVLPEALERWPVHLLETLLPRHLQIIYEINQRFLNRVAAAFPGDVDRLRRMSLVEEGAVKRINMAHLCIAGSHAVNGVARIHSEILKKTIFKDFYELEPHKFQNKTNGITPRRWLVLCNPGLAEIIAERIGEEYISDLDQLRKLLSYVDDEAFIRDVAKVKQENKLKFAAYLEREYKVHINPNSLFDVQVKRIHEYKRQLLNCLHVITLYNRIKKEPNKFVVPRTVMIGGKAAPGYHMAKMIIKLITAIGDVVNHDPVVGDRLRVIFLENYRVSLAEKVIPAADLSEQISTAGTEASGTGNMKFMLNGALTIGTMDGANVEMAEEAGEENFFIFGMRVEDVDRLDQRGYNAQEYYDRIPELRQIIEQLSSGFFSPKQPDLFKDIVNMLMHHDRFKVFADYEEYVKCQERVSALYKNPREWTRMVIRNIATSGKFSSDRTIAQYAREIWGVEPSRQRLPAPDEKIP
Briefly: Inhibition of rabbit muscle glycogen phosphorylase A assessed as release of phosphate from glucose-1-phosphate after 25 mins by microplate reader based method.
The IC50 is the point on the concentration scale where inhibition reaches its midpoint. As to `CC1(C)CC[C@]2(C(=O)OC3CC3)CC[C@]3(C)C(=CC[C@@H]4[C@@]5(C)C[C@H](O)CC(C)(C)[C@@H]5CC[C@]43C)[C@@H]2C1`, the IC50 is 23.1 µM.

Consider `C[C@H]1[C@H](C)CC[C@]2(C(=O)OCc3ccccc3)CC[C@]3(C)C(=CC[C@@H]4[C@@]5(C)C[C@H](O)CC(C)(C)[C@@H]5CC[C@]43C)[C@H]12`, for which the IC50 is 22.3 µM.

Turning to `CC1(C)CC[C@]2(C(=O)OCCCCCCN)CC[C@]3(C)C(=CC[C@@H]4[C@@]5(C)CC[C@H](O)C(C)(C)[C@@H]5CC[C@]43C)[C@@H]2C1`, the IC50 turned out to be 14.1 µM.

Regarding `CCCCNCCCCCCOC(=O)[C@]12CCC(C)(C)C[C@H]1C1=CC[C@@H]3[C@@]4(C)CC[C@H](O)C(C)(C)[C@@H]4CC[C@@]3(C)[C@]1(C)CC2`, the IC50 came out at 12.6 µM.

Take `Cc1ccc(NCCCCCCOC(=O)[C@]23CCC(C)(C)C[C@H]2C2=CC[C@@H]4[C@@]5(C)CC[C@H](O)C(C)(C)[C@@H]5CC[C@@]4(C)[C@]2(C)CC3)cc1`: the IC50 turned out to be 28.1 µM.

`CO[C@H]1O[C@H](Cn2cc(COC(=O)[C@]34CCC(C)(C)C[C@H]3C3=CC[C@@H]5[C@@]6(C)CC[C@H](O)C(C)(C)[C@@H]6CC[C@@]5(C)[C@]3(C)CC4)nn2)[C@@H](O)[C@H](O)[C@H]1O`: the IC50 was 1.14 µM.

On to `CC(=O)OCCCCCCOC(=O)[C@H](O)CC(=O)OCCCCCCOC(=O)[C@]12CCC(C)(C)C[C@H]1C1=CC[C@@H]3[C@@]4(C)CC[C@H](O)C(C)(C)[C@@H]4CC[C@@]3(C)[C@]1(C)CC2`, for which the IC50 came to 12.3 µM.

In the case of `CC(=O)OCc1cn(CCCCCCn2cc(COC(=O)[C@]34CCC(C)(C)C[C@H]3C3=CC[C@@H]5[C@@]6(C)CC[C@H](O)C(C)(C)[C@@H]6CC[C@@]5(C)[C@]3(C)CC4)nn2)nn1`, the IC50 is 20.7 µM.

Take `CC1(C)CC[C@]2(C(=O)OCc3ccccc3)CC[C@]3(C)C(=CC[C@@H]4[C@@]5(C)CC[C@H](OC(=O)CCl)C(C)(C)[C@@H]5CC[C@]43C)[C@@H]2C1`: the IC50 was determined as 12.6 µM.

On to `CC1(C)CC[C@]2(C(=O)OCc3ccccc3)CC[C@]3(C)C(=CC[C@@H]4[C@@]5(C)CC[C@H](OC(=O)CN=[N+]=[N-])C(C)(C)[C@@H]5CC[C@]43C)[C@@H]2C1`, for which the IC50 is 12.7 µM.

On to `CCN(CC)CC(=O)O[C@H]1CC[C@]2(C)[C@H]3CC=C4[C@@H]5CC(C)(C)CC[C@]5(C(=O)OCc5ccccc5)CC[C@@]4(C)[C@]3(C)CC[C@H]2C1(C)C`, for which the IC50 worked out at 20.1 µM.

In the case of `Cc1ccc(-n2ncc3c2C(C)(C)[C@@H]2CC[C@]4(C)[C@H](CC=C5[C@@H]6CC(C)(C)CC[C@]6(C(=O)O)CC[C@]54C)[C@@]2(C)C3)cc1`, the IC50 was 18.3 µM.

In the case of `CC1(C)CC[C@]2(C(=O)O)CC[C@]3(C)C(=CC[C@@H]4[C@@]5(C)Cc6cnn(-c7ccc(Cl)cc7)c6C(C)(C)[C@@H]5CC[C@]43C)[C@@H]2C1`, the IC50 was 242 µM.

For `CC1(C)CC[C@]2(C(=O)O)CC[C@]3(C)C(=CC[C@@H]4[C@@]5(C)Cc6cnn(-c7cc(F)cc(F)c7)c6C(C)(C)[C@@H]5CC[C@]43C)[C@@H]2C1`, the IC50 was 46.9 µM.

Turning to `CC(C)c1ccc(-n2ncc3c2C(C)(C)[C@@H]2CC[C@]4(C)[C@H](CC=C5[C@@H]6CC(C)(C)CC[C@]6(C(=O)O)CC[C@]54C)[C@@]2(C)C3)cc1`, the IC50 came to 69.6 µM.

Consider `Cc1ccc(-n2ncc3c2C(C)(C)[C@@H]2CC[C@]4(C)[C@H](CC=C5[C@@H]6CC(C)(C)CC[C@]6(C(=O)OCc6ccccc6)CC[C@]54C)[C@@]2(C)C3)cc1`, for which the IC50 is 106 µM.

As for `CC1(C)CC[C@]2(C(=O)OCc3ccccc3)CC[C@]3(C)C(=CC[C@@H]4[C@@]5(C)Cc6cnn(-c7ccc(Cl)cc7)c6C(C)(C)[C@@H]5CC[C@]43C)[C@@H]2C1`, the IC50 came to 11.2 µM.

As to `COc1ccc(-n2ncc3c2C(C)(C)[C@@H]2CC[C@]4(C)[C@H](CC=C5[C@@H]6CC(C)(C)CC[C@]6(C(=O)OCc6ccccc6)CC[C@]54C)[C@@]2(C)C3)cc1`, the IC50 was determined as 13.1 µM.

Turning to `CC1(C)CC[C@]2(C(=O)OCc3ccccc3)CC[C@]3(C)C(=CC[C@@H]4[C@@]5(C)Cc6cn[nH]c6C(C)(C)[C@@H]5CC[C@]43C)[C@@H]2C1`, the IC50 is 8.1 µM.

For the compound `CC1(C)CC[C@]2(COC(=O)CCC(=O)O)CC[C@]3(C)C(=CC[C@@H]4[C@@]5(C)Cc6c[nH]nc6C(C)(C)[C@@H]5CC[C@]43C)[C@@H]2C1`, the IC50 is 24.7 µM.

Regarding `C[C@H]1[C@H](C)CC[C@]2(C(=O)O)CC[C@]3(C)C(=CC[C@@H]4[C@@]5(C)Cc6cn[nH]c6C(C)(C)[C@@H]5CC[C@]43C)[C@H]12`, the IC50 worked out at 40.4 µM.

Turning to `C[C@H]1[C@H](C)CC[C@]2(C(=O)OCc3ccccc3)CC[C@]3(C)C(=CC[C@@H]4[C@@]5(C)Cc6cn[nH]c6C(C)(C)[C@@H]5CC[C@]43C)[C@H]12`, the IC50 turned out to be 72.9 µM.

With `Cn1cc2c(n1)C(C)(C)[C@@H]1CC[C@]3(C)[C@H](CC=C4[C@@H]5CC(C)(C)CC[C@]5(C(=O)OCc5ccccc5)CC[C@]43C)[C@@]1(C)C2`, the IC50 stood at 188 µM.

For `CCn1cc2c(n1)C(C)(C)[C@@H]1CC[C@]3(C)[C@H](CC=C4[C@@H]5CC(C)(C)CC[C@]5(C(=O)OCc5ccccc5)CC[C@]43C)[C@@]1(C)C2`, the IC50 worked out at 64.6 µM.

Turning to `CC1(C)CC[C@]2(C(=O)OCc3ccccc3)CC[C@]3(C)C(=CC[C@@H]4[C@@]5(C)Cc6cn(C7CC7)nc6C(C)(C)[C@@H]5CC[C@]43C)[C@@H]2C1`, the IC50 was 20.5 µM.

For the compound `CC1(C)CC[C@]2(C(=O)OCc3ccccc3)CC[C@]3(C)C(=CC[C@@H]4[C@@]5(C)Cc6cn(CC(=O)O)nc6C(C)(C)[C@@H]5CC[C@]43C)[C@@H]2C1`, the IC50 is 47.1 µM.

`CC1(C)CC[C@]2(C(=O)OCc3ccccc3)CC[C@]3(C)C(=CC[C@@H]4[C@@]5(C)Cc6cn(Cc7ccccc7)nc6C(C)(C)[C@@H]5CC[C@]43C)[C@@H]2C1`: the IC50 was determined as 126 µM.

With `CCOC(=O)Cn1cc2c(n1)C(C)(C)[C@@H]1CC[C@]3(C)[C@H](CC=C4[C@@H]5CC(C)(C)CC[C@]5(C(=O)OCc5ccccc5)CC[C@]43C)[C@@]1(C)C2`, the IC50 was found to be 111 µM.

For the compound `CC1(C)CC[C@]2(C(=O)OCc3ccccc3)CC[C@]3(C)C(=CC[C@@H]4[C@@]5(C)Cc6cn(Cc7ccc(Cl)cc7Cl)nc6C(C)(C)[C@@H]5CC[C@]43C)[C@@H]2C1`, the IC50 came to 179 µM.

`CC(=O)n1cc2c(n1)C(C)(C)[C@@H]1CC[C@]3(C)[C@H](CC=C4[C@@H]5CC(C)(C)CC[C@]5(C(=O)O)CC[C@]43C)[C@@]1(C)C2`: the IC50 is 53.8 µM.

Turning to `CC1(C)CC[C@]2(C(=O)O)CC[C@]3(C)C(=CC[C@@H]4[C@@]5(C)Cc6cn(S(C)(=O)=O)nc6C(C)(C)[C@@H]5CC[C@]43C)[C@@H]2C1`, the IC50 was 49.3 µM.

Consider `CCC(=O)n1cc2c(n1)C(C)(C)[C@@H]1CC[C@]3(C)[C@H](CC=C4[C@@H]5CC(C)(C)CC[C@]5(C(=O)O)CC[C@]43C)[C@@]1(C)C2`, for which the IC50 turned out to be 37.2 µM.

On to `C[C@H]1[C@H](C)CC[C@]2(C(=O)OCc3ccccc3)CC[C@]3(C)C(=CC[C@@H]4[C@@]5(C)C=C(O)C(=O)C(C)(C)[C@@H]5CC[C@]43C)[C@H]12`, for which the IC50 worked out at 7.31 µM.

Take `CC1(C)CC[C@]2(C(=O)O)CC[C@]3(C)C(=CC[C@@H]4[C@@]5(C)Cc6cn[nH]c6C(C)(C)[C@@H]5CC[C@]43C)[C@@H]2C1`: the IC50 amounted to 7.8 µM.
